Experimental data reported in PMC6614840 (2019).

How the values were obtained:
[1] = system: BPX variant (G39C) (RNA, riboswitch, internal amino modifier (N) for Cy5 between 25 and 26 of strand 2; strand 3 is a DNA tether) GCGGUGAAGAUAGACGUGCGAACUUCAAGAGUAUGCCUUUGGAGAAAGAUGGAUUCUGUGAAAAAGGCUGAAAGGGGAGCGUCGCCGAAGCAAAUAAAACCCCAUCGGUAUUAUUUGCUGGCCGUGCAUUGAAUAAAUGUAAGGCUGUCAAGAAGCAUCGUUCAAGCGUUUUUUAUGCUUGGAAGAUAAGAA/CCGAUGCUUCUUGGAGGGCUAUCUUCACC; test: smFRET histograms; conditions: ligand-bound FRET state not formed even at high Mg2+ or lysine
[2] = system: wild-type lysC aptamer (three-strand smFRET construct LMS/1-5V2/DNA-bi) (RNA, riboswitch, internal amino modifier (N) for Cy5 between 25 and 26 of strand 2; strand 3 is a DNA tether) GCGGUGAAGAUAGAGGUGCGAACUUCAAGAGUAUGCCUUUGGAGAAAGAUGGAUUCUGUGAAAAAGGCUGAAAGGGGAGCGUCGCCGAAGCAAAUAAAACCCCAUCGGUAUUAUUUGCUGGCCGUGCAUUGAAUAAAUGUAAGGCUGUCAAGAAGCAUCGUUCAAGCGUUUUUUAUGCUUGGAAGAUAAGAA/CCGAUGCUUCUUGGAGGGCUAUCUUCACC; test: smFRET histograms, global Hill fit of state occupancies; conditions: 50 mM Tris pH 7.8
[3] = system: wild-type lysC aptamer (three-strand smFRET construct LMS/1-5V2/DNA-bi) (RNA, riboswitch, internal amino modifier (N) for Cy5 between 25 and 26 of strand 2; strand 3 is a DNA tether) GCGGUGAAGAUAGAGGUGCGAACUUCAAGAGUAUGCCUUUGGAGAAAGAUGGAUUCUGUGAAAAAGGCUGAAAGGGGAGCGUCGCCGAAGCAAAUAAAACCCCAUCGGUAUUAUUUGCUGGCCGUGCAUUGAAUAAAUGUAAGGCUGUCAAGAAGCAUCGUUCAAGCGUUUUUUAUGCUUGGAAGAUAAGAA/CCGAUGCUUCUUGGAGGGCUAUCUUCACC; test: smFRET histograms; conditions: Na+ in place of K+; ligand-bound FRET state not formed efficiently
[4] = system: wild-type lysC aptamer (three-strand smFRET construct LMS/1-5V2/DNA-bi) (RNA, riboswitch, internal amino modifier (N) for Cy5 between 25 and 26 of strand 2; strand 3 is a DNA tether) GCGGUGAAGAUAGAGGUGCGAACUUCAAGAGUAUGCCUUUGGAGAAAGAUGGAUUCUGUGAAAAAGGCUGAAAGGGGAGCGUCGCCGAAGCAAAUAAAACCCCAUCGGUAUUAUUUGCUGGCCGUGCAUUGAAUAAAUGUAAGGCUGUCAAGAAGCAUCGUUCAAGCGUUUUUUAUGCUUGGAAGAUAAGAA/CCGAUGCUUCUUGGAGGGCUAUCUUCACC; test: smFRET kinetics, KD,fold x KD,bind; conditions: 100 mM K+, 2 mM Mg2+; 50 mM Tris pH 7.8; apparent
[5] = system: L2X variant (G72C-G76C) (RNA, riboswitch, internal amino modifier (N) for Cy5 between 25 and 26 of strand 2; strand 3 is a DNA tether) GCGGUGAAGAUAGAGGUGCGAACUUCAAGAGUAUGCCUUUGGAGAAACUACCAUUCUGUGAAAAAGGCUGAAAGGGGAGCGUCGCCGAAGCAAAUAAAACCCCAUCGGUAUUAUUUGCUGGCCGUGCAUUGAAUAAAUGUAAGGCUGUCAAGAAGCAUCGUUCAAGCGUUUUUUAUGCUUGGAAGAUAAGAA/CCGAUGCUUCUUGGAGGGCUAUCUUCACC; test: smFRET histograms; conditions: ligand-bound FRET state not formed even at high Mg2+ or lysine
[6] = system: L4X variant (A156/157C) (RNA, riboswitch, internal amino modifier (N) for Cy5 between 25 and 26 of strand 2; strand 3 is a DNA tether) GCGGUGAAGAUAGAGGUGCGAACUUCAAGAGUAUGCCUUUGGAGAAAGAUGGAUUCUGUGAAAAAGGCUGAAAGGGGAGCGUCGCCGAAGCAAAUAAAACCCCAUCGGUAUUAUUUGCUGGCCGUGCAUUGCCUAAAUGUAAGGCUGUCAAGAAGCAUCGUUCAAGCGUUUUUUAUGCUUGGAAGAUAAGAA/CCGAUGCUUCUUGGAGGGCUAUCUUCACC; test: smFRET histograms; conditions: ligand-bound FRET state not formed even at high Mg2+ or lysine

- binding [1]: no
- KD ([2]; 100 mM K+, 2 mM Mg2+, Figure 4 legend prints 4.5 ± 1 μM): 3 ± 1 µM
- KD ([2]; no K+, 10 mM Mg2+, Hill coefficient 1.1 ± 0.2): 850 ± 35 µM
- binding [3]: weak
- KD, app [4]: 11 ± 7 µM
- binding [5]: no
- binding [6]: no
SMILES: NCCCC[C@H](N)C(=O)O
